The results in this text go back to patent publication US20150065717A1, “NIPECOTIC ACID DERIVATIVE AND USE THEREOF FOR MEDICAL PURPOSES” (Toray Industries, Inc., priority 2012, published 2015).

As usually defined, the IC50 is the point on the concentration scale where inhibition reaches its midpoint.

The target of this assay is T1, recombinant human sEH (Homo sapiens, UniProt P34913).
T1 construct: purchased Cayman
T1 sequence (P34913 1-555): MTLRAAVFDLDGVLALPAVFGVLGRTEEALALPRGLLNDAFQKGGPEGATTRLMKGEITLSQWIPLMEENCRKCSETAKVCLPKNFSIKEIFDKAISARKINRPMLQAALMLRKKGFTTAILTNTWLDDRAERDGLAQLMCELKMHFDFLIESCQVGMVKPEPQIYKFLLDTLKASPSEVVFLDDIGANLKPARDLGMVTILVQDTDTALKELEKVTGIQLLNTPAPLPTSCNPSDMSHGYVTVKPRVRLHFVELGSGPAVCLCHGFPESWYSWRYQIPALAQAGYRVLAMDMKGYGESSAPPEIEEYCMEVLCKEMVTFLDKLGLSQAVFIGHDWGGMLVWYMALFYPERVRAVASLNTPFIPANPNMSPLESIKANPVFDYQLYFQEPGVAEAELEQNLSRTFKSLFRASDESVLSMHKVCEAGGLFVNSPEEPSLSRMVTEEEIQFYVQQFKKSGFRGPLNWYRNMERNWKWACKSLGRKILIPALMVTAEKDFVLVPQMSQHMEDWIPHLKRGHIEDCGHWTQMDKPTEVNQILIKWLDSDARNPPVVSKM
Kind of assay: In vitro evaluation test for sEH inhibitory activity. In kind it is biochemical. The following applies: recombinant human sEH 0.026 μg/mL, fluorescent substrate 6.25 μmol/L, room temperature. How it is done:
According to the method described in a known document (Analytical Biochemistry, 2005, vol. 343, p. 66-75), the sEH inhibitory activity of each nipecotic acid derivative (I) or a pharmaceutically acceptable salt thereof was evaluated using human sEH.
A recombinant human sEH (final concentration, 0.026 μg/mL; Cayman) was incubated with each test compound in 25 mM Bis-Tris-HCl buffer (pH 7.0) supplemented with 0.1 mg/mL BSA at room temperature for 30 minutes. Thereafter, cyano(6-methoxynaphthalen-2-yl)methyl 2-(3-phenyloxiran-2-yl)acetate (final concentration, 6.25 μmol/L; Cayman) was added thereto as a fluorescent substrate, and the resulting mixture was incubated at room temperature for 20 minutes. The reaction was then stopped by addition of ZnSO4 (final concentration, 0.2 mol/L), and the fluorescence intensity was measured (Fusion α (Packard); Excitation: 330 nm, Emission:485 nm).
The fluorescence intensity observed with addition of neither sEH nor a test compound was regarded as the sEH enzymatic reaction rate of 0%, and the fluorescence intensity observed with addition of sEH but without addition of a test compound was regarded as the sEH enzymatic reaction rate of 100%. From the obtained fluorescence intensity, the sEH enzymatic reaction rate of each test compound was calculated to determine IC50.
Turning to `O=C(Nc1ccc(C(F)(F)F)cn1)[C@@H]1CCCN(C(=O)C2(O)CCCCC2)C1` [Comparative Example Compound 1, (R)-1-(1-hydroxycyclohexanecarbonyl)-N-(5-(trifluoromethyl)pyridin-2-yl)piperidine-3-carboxamide, reference compound], the IC50 is more than 20 nM. Consider `CC(=O)NCC(=O)N1CCC[C@@H](C(=O)NCc2ccc(C#N)cc2OC(F)(F)F)C1` [Comparative Example Compound 2, (R)-1-(2-acetamidoacetyl)-N-(4-cyano-2-(trifluoromethoxy)benzyl)piperidine-3-carboxamide, reference compound], for which the IC50 was more than 30 nM. Regarding `CS(=O)(=O)NC1(C(=O)N2CCC[C@@H](C(=O)NCc3ccc(C#N)cc3OC(F)(F)F)C2)CC1` [Example Compound 3, (R)—N-(4-cyano-2-(trifluoromethoxy)benzyl)-1-(1-(methylsulfonamido)cyclopropanecarbonyl)piperidine-3-carboxamide], the IC50 came to 3.5 nM.

`N#Cc1ccc(CNC(=O)[C@@H]2CCCN(C(=O)C3(C(F)(F)F)CC3)C2)c(OC(F)(F)F)c1` [Example Compound 4, (R)—N-(4-cyano-2-(trifluoromethoxy)benzyl)-1-(1-(trifluoromethyl)cyclopropanecarbonyl)piperidine-3-carboxamide]: the IC50 worked out at 1 nM. On to `CS(=O)(=O)NC1(C(=O)N2CCC[C@@H](C(=O)NCc3ccc(C#N)cc3OC(F)(F)F)C2)CCC1` [Example Compound 5, (R)—N-(4-cyano-2-(trifluoromethoxy)benzyl)-1-(1-(methylsulfonamido)cyclobutanecarbonyl)piperidine-3-carboxamide], for which the IC50 amounted to 1 nM. `CC(C)C(=O)NC1(C(=O)N2CCC[C@@H](C(=O)NCc3ccc(C#N)cc3OC(F)(F)F)C2)CCC1` [Example Compound 6, (R)—N-(4-cyano-2-(trifluoromethoxy)benzyl)-1-(1-isobutylamidocyclobutanecarbonyl)piperidine-3-carboxamide]: the half-maximal inhibitory concentration (IC50) was 1 nM. On to `CC(C)(C)C(=O)NC1(C(=O)N2CCC[C@@H](C(=O)NCc3ccc(C#N)cc3OC(F)(F)F)C2)CCC1` [Example Compound 7, (R)—N-(4-cyano-2-(trifluoromethoxy)benzyl)-1-(1-pivalamidocyclobutanecarbonyl)piperidine-3-carboxamide], for which the IC50 worked out at 0.8 nM. The value for `CC(=O)NC1(C(=O)N2CCC[C@@H](C(=O)NCc3ccc(C#N)cc3OC(F)(F)F)C2)CCCC1` [Example Compound 8, (R)-1-(1-acetamidocyclopentanecarbonyl)-N-(4-cyano-2-(trifluoromethoxy)benzyl)piperidine-3-carboxamide] was 1.7 nM; that for `CC(=O)NC1(C(=O)N2CCC[C@@H](C(=O)NCc3ccc(C#N)cc3OC(F)(F)F)C2)CCC1` [Example Compound 9, (R)-1-(1-acetamidocyclobutanecarbonyl)-N-(4-cyano-2-(trifluoromethoxy)benzyl)piperidine-3-carboxamide] was 6.1 nM; that for `CC(C)(NS(C)(=O)=O)C(=O)N1CCC[C@@H](C(=O)NCc2ccc(Cl)cc2OCC(F)(F)F)C1` [Example Compound 10, (R)—N-(4-chloro-2-(2,2,2-trifluoroethoxy)benzyl)-1-(2-methyl-2-(methylsulfonamido)propanoyl)piperidine-3-carboxamide] was 2.6 nM.

As to `CC(=O)N[C@@H](C(=O)N1CCC[C@@H](C(=O)NCc2ccc(C#N)cc2OC(F)(F)F)C1)C(C)C` [Example Compound 11, (R)-1-((R)-2-acetamido-3-methylbutanoyl)-N-(4-cyano-2-(trifluoromethoxy)benzyl)piperidine-3-carboxamide], the IC50 turned out to be 0.5 nM. On to `CC(C)[C@@H](NS(C)(=O)=O)C(=O)N1CCC[C@@H](C(=O)NCc2ccc(C#N)cc2OC(F)(F)F)C1` [Example Compound 12, (R)—N-(4-cyano-2-(trifluoromethoxy)benzyl)-1-((R)-3-methyl-2-(methylsulfonamido)butanoyl)piperidine-3-carboxamide], for which the IC50 was determined as 0.3 nM.

Regarding `CCS(=O)(=O)NC1(C(=O)N2CCC[C@@H](C(=O)NCc3ccc(C#N)cc3OC(F)(F)F)C2)CC1` [Example Compound 13, (R)—N-(4-cyano-2-(trifluoromethoxy)benzyl)-1-(1-(ethylsulfonamido)cyclopropanecarbonyl)piperidine-3-carboxamide], the IC50 was 1.4 nM. With `CC(C)(NS(C)(=O)=O)C(=O)N1CCC[C@@H](C(=O)NCc2ccc(C(N)=O)cc2OC(F)(F)F)C1` [Example Compound 14, (R)—N-(4-carbamoyl-2-(trifluoromethoxy)benzyl)-1-(2-methyl-2-(methylsulfonamido)propanoyl)piperidine-3-carboxamide], the IC50 was 1.5 nM.

Turning to `CS(=O)(=O)NC1(C(=O)N2CCC[C@@H](C(=O)NCc3ccc(C(N)=O)cc3OC(F)(F)F)C2)CC1` [Example Compound 15], the IC50 turned out to be 1.9 nM. Turning to `CC(C)(O)C(=O)N1CCC[C@@H](C(=O)NCc2ccc(C#N)cc2OC(F)(F)F)C1` [Example Compound 16, (R)—N-(4-cyano-2-(trifluoromethoxy)benzyl)-1-(2-hydroxy-2-methylpropanoyl)piperidine-3-carboxamide], the IC50 came to 2.4 nM. In the case of `CC(C)(C)C(=O)N1CCC[C@@H](C(=O)NCc2ccc(C#N)cc2OC(F)(F)F)C1` [Example Compound 17, (R)—N-(4-cyano-2-(trifluoromethoxy)benzyl)-1-pivaloylpiperidine-3-carboxamide], the IC50 was determined as 1.1 nM.

Consider `CN(C1(C(=O)N2CCC[C@@H](C(=O)NCc3ccc(C#N)cc3OC(F)(F)F)C2)CC1)S(C)(=O)=O` [Example Compound 18, (R)—N-(4-cyano-2-(trifluoromethoxy)benzyl)-1-(1-(N-methylmethylsulfonamido)cyclopropanecarbonyl)piperidine-3-carboxamide], for which the IC50 came out at 1.6 nM.

With `CC(C)(CO)C(=O)N1CCC[C@@H](C(=O)NCc2ccc(C#N)cc2OC(F)(F)F)C1` [Example Compound 19, (R)—N-(4-cyano-2-(trifluoromethoxy)benzyl)-1-(3-hydroxy-2,2-dimethylpropanoyl)piperidine-3-carboxamide], the IC50 turned out to be 1.3 nM. As for `N#Cc1ccc(CNC(=O)[C@@H]2CCCN(C(=O)C3(O)CCCCC3)C2)c(OC(F)(F)F)c1` [Example Compound 20, (R)—N-(4-cyano-2-(trifluoromethoxy)benzyl)-1-(1-hydroxycyclohexanecarbonyl)piperidine-3-carboxamide], the 50% inhibitory concentration (IC50) was determined as 0.7 nM.

On to `CC[C@@H](NC(C)=O)C(=O)N1CCC[C@@H](C(=O)NCc2ccc(C#N)cc2OC(F)(F)F)C1` [Example Compound 21, (R)-1-((R)-2-acetamidobutanoyl)-N-(4-cyano-2-(trifluoromethoxy)benzyl)piperidine-3-carboxamide], for which the IC50 turned out to be 0.9 nM.

Take `CC[C@@H](NS(C)(=O)=O)C(=O)N1CCC[C@@H](C(=O)NCc2ccc(C#N)cc2OC(F)(F)F)C1` [Example Compound 22, (R)—N-(4-cyano-2-(trifluoromethoxy)benzyl)-1-((R)-2-(methylsulfonamido)butanoyl)piperidine-3-carboxamide]: the IC50 came out at 0.5 nM. For `N#Cc1ccc(CNC(=O)[C@@H]2CCCN(C(=O)C3(C#N)CC3)C2)c(OC(F)(F)F)c1` [Example Compound 23, (R)—N-(4-cyano-2-(trifluoromethoxy)benzyl)-1-(1-cyanocyclopropanecarbonyl)piperidine-3-carboxamide], the IC50 came out at 1.8 nM. With `CC(=O)N[C@H](C)C(=O)N1CCC[C@@H](C(=O)NCc2ccc(C#N)cc2OC(F)(F)F)C1` [Example Compound 24, (R)-1-((R)-2-acetamidopropanoyl)-N-(4-cyano-2-(trifluoromethoxy)benzyl)piperidine-3-carboxamide], the IC50 came to 2.5 nM. Take `C[C@@H](NS(C)(=O)=O)C(=O)N1CCC[C@@H](C(=O)NCc2ccc(C#N)cc2OC(F)(F)F)C1` [Example Compound 25, (R)—N-(4-cyano-2-(trifluoromethoxy)benzyl)-1-((R)-2-(methylsulfonamido)propanoyl)piperidine-3-carboxamide]: the IC50 was 1.8 nM. As for `CC(C)C(=O)NC1(C(=O)N2CCC[C@@H](C(=O)NCc3ccc(C#N)cc3OC(F)(F)F)C2)CC1` [Example Compound 26, (R)—N-(4-cyano-2-(trifluoromethoxy)benzyl)-1-(1-isobutylamidocyclopropanecarbonyl)piperidine-3-carboxamide], the IC50 amounted to 5.8 nM.
